Experimental data reported in ChEMBL document CHEMBL6177998, “Rational Design of Dual Degraders by Incorporating Molecular Glue Structural Features into PROTAC Degraders” (J Med Chem, 2025).

Key:
Type in all cases: cell-based
[1] = system: Protein cereblon/Androgen receptor (Homo sapiens), P10275+Q96SW2 [UNDEFINED MUTATION]; assay: PROTAC activity at CRBN/Androgen receptor splice variant 7 in human 22Rv1 cells assessed as induction of AR-V7 degradation at 1 uM incubated for 24 hrs by Western blot analysis relative to control
Sequence of Protein cereblon/Androgen receptor (Homo sapiens), P10275+Q96SW2 [UNDEFINED MUTATION] (P10275 whole entry, looked up, change not shown, canonical isoform): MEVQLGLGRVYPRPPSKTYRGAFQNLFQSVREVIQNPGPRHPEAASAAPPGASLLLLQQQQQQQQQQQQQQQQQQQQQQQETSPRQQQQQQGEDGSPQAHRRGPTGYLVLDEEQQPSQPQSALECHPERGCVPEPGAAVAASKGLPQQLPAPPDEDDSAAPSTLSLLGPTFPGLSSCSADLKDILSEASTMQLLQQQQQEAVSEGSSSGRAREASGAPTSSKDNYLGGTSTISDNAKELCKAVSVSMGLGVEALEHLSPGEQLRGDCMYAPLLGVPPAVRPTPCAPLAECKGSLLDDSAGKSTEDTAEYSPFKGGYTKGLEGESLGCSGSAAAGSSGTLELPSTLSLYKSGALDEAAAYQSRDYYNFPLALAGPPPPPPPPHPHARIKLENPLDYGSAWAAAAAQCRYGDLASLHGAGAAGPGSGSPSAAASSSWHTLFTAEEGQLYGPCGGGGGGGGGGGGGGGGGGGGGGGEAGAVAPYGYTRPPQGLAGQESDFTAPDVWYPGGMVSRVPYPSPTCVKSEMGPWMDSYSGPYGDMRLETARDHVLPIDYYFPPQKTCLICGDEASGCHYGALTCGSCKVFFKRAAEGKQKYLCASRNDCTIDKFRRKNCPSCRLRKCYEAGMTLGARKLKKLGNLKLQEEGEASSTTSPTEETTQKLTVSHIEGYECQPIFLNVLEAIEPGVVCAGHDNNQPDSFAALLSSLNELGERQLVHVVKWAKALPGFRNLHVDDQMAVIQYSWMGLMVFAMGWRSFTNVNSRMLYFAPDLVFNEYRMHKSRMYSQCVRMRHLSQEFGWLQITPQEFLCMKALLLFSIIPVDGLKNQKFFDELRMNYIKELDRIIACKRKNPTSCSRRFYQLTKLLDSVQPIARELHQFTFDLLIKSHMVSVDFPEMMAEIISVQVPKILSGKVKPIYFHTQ
Sequence of Protein cereblon/Androgen receptor (Homo sapiens), P10275+Q96SW2 [UNDEFINED MUTATION] (Q96SW2 whole entry, looked up, change not shown, canonical isoform): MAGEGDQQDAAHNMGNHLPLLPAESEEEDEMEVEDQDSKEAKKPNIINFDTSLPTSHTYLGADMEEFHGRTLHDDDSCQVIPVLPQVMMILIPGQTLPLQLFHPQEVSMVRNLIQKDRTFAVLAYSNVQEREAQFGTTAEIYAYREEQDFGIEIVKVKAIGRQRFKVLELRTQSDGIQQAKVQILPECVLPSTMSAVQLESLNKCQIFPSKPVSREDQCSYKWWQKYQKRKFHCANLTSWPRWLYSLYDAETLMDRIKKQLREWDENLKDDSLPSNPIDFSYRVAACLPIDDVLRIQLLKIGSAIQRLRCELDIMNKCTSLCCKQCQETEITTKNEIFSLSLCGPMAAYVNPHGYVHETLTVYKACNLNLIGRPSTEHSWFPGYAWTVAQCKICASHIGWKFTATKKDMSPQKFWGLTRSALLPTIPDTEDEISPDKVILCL

[2] = system: Protein cereblon/Androgen receptor (Homo sapiens), P10275+Q96SW2 [UNDEFINED MUTATION]; assay: PROTAC activity at CRBN/Androgen receptor splice variant 7 in human VCaP cells assessed as induction of AR-V7 degradation at 1 uM incubated for 24 hrs by Western blot analysis relative to control
[3] = target: T1, Protein cereblon/Eukaryotic peptide chain release factor GTP-binding subunit ERF3A (Homo sapiens, UniProt Q96SW2+P15170); assay: Molecular glue activity at CRBN/GSPT1 in human 22Rv1 cells assessed as induction of GSPT1 degradation at 1 uM incubated for 24 hrs by Western blot analysis relative to control
T1 sequence (P15170 whole entry, looked up, canonical isoform): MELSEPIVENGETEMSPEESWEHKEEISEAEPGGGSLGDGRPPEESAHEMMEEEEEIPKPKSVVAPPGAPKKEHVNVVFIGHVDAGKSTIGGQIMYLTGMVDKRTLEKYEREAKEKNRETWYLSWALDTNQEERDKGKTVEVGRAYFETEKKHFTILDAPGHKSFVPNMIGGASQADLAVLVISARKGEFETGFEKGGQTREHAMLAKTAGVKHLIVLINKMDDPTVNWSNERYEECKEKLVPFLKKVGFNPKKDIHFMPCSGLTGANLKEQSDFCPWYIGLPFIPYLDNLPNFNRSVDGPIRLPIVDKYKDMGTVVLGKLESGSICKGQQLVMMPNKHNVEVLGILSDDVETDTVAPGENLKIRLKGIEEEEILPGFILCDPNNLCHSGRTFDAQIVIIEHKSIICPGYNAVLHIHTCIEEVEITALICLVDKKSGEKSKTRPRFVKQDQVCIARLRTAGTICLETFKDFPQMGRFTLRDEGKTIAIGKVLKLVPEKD
T1 sequence (Q96SW2 whole entry, looked up, canonical isoform): as the sequence (Q96SW2 whole entry, looked up, change not shown, canonical isoform) above

[4] = system: Protein cereblon/Androgen receptor (Homo sapiens), P10275+Q96SW2 [UNDEFINED MUTATION]; assay: PROTAC activity at CRBN/Androgen receptor splice variant 7 in human VCaP cells assessed as induction of AR-V7 degradation at 5 uM incubated for 24 hrs by Western blot analysis relative to control
[5] = target: T1, Protein cereblon/Eukaryotic peptide chain release factor GTP-binding subunit ERF3A; assay: Molecular glue activity at CRBN/GSPT1 in human 22Rv1 cells assessed as induction of GSPT1 degradation at 5 uM incubated for 24 hrs by Western blot analysis relative to control
[6] = target: T2, Protein cereblon/Androgen receptor (Homo sapiens, UniProt P10275+Q96SW2); assay: PROTAC activity at CRBN/AR in human 22Rv1 cells assessed as induction of AR degradation at 5 uM incubated for 24 hrs by Western blot analysis relative to control
T2 sequence (P10275 whole entry, looked up): as the sequence (P10275 whole entry, looked up, change not shown, canonical isoform) above
T2 sequence (Q96SW2 whole entry, looked up): as the sequence (Q96SW2 whole entry, looked up, change not shown, canonical isoform) above

[7] = target: T2, Protein cereblon/Androgen receptor; assay: PROTAC activity at CRBN/AR in human VCaP cells assessed as induction of AR degradation at 1 uM incubated for 24 hrs by Western blot analysis relative to control
[8] = system: Protein cereblon/Androgen receptor (Homo sapiens), P10275+Q96SW2 [UNDEFINED MUTATION]; assay: PROTAC activity at CRBN/Androgen receptor splice variant 7 in human 22Rv1 cells assessed as induction of AR-V7 degradation at 5 uM incubated for 24 hrs by Western blot analysis relative to control
[9] = target: T2, Protein cereblon/Androgen receptor; assay: PROTAC activity at CRBN/AR in human 22Rv1 cells assessed as induction of AR degradation at 1 uM incubated for 24 hrs by Western blot analysis relative to control
[10] = target: T2, Protein cereblon/Androgen receptor; assay: PROTAC activity at CRBN/AR in human VCaP cells assessed as induction of AR degradation at 5 uM incubated for 24 hrs by Western blot analysis relative to control
[11] = target: T1, Protein cereblon/Eukaryotic peptide chain release factor GTP-binding subunit ERF3A; assay: Molecular glue activity at CRBN/GSPT1 in human 22Rv1 cells assessed as induction of GSPT1 degradation at 0.01 uM incubated for 24 hrs by Western blot analysis relative to control
[12] = target: T2, Protein cereblon/Androgen receptor; assay: PROTAC activity at CRBN/AR in human 22Rv1 cells assessed as induction of AR degradation at 0.01 uM incubated for 24 hrs by Western blot analysis relative to control
[13] = target: T2, Protein cereblon/Androgen receptor; assay: PROTAC activity at CRBN/AR in human VCaP cells assessed as induction of AR degradation at 0.01 uM incubated for 24 hrs by Western blot analysis relative to control
[14] = system: Protein cereblon/Androgen receptor (Homo sapiens), P10275+Q96SW2 [UNDEFINED MUTATION]; assay: PROTAC activity at CRBN/Androgen receptor splice variant 7 in human 22Rv1 cells assessed as induction of AR-V7 degradation at 0.01 uM incubated for 24 hrs by Western blot analysis relative to control
[15] = target: T2, Protein cereblon/Androgen receptor; assay: PROTAC activity at CRBN/AR in human VCaP cells assessed as induction of AR degradation at 0.1 uM incubated for 24 hrs by Western blot analysis relative to control
[16] = system: Protein cereblon/Androgen receptor (Homo sapiens), P10275+Q96SW2 [UNDEFINED MUTATION]; assay: PROTAC activity at CRBN/Androgen receptor splice variant 7 in human VCaP cells assessed as induction of AR-V7 degradation at 0.1 uM incubated for 24 hrs by Western blot analysis relative to control
[17] = system: Protein cereblon/Androgen receptor (Homo sapiens), P10275+Q96SW2 [UNDEFINED MUTATION]; assay: PROTAC activity at CRBN/Androgen receptor splice variant 7 in human 22Rv1 cells assessed as induction of AR-V7 degradation at 0.1 uM incubated for 24 hrs by Western blot analysis relative to control
[18] = target: T1, Protein cereblon/Eukaryotic peptide chain release factor GTP-binding subunit ERF3A; assay: Molecular glue activity at CRBN/GSPT1 in human 22Rv1 cells assessed as induction of GSPT1 degradation at 0.1 uM incubated for 24 hrs by Western blot analysis relative to control
[19] = target: T2, Protein cereblon/Androgen receptor; assay: PROTAC activity at CRBN/AR in human 22Rv1 cells assessed as induction of AR degradation at 0.1 uM incubated for 24 hrs by Western blot analysis relative to control
[20] = system: Protein cereblon/Androgen receptor (Homo sapiens), P10275+Q96SW2 [UNDEFINED MUTATION]; assay: PROTAC activity at CRBN/Androgen receptor splice variant 7 in human VCaP cells assessed as induction of AR-V7 degradation at 0.01 uM incubated for 24 hrs by Western blot analysis relative to control

Row | Compound | Activity [1] [%] | Activity [2] [%] | Activity [3] [%] | Activity [4] [%] | Activity [5] [%] | Activity [6] [%] | Activity [7] [%] | Activity [8] [%] | Activity [9] [%] | Activity [10] [%] | Activity [11] [%] | Activity [12] [%] | Activity [13] [%] | Activity [14] [%] | Activity [15] [%] | Activity [16] [%] | Activity [17] [%] | Activity [18] [%] | Activity [19] [%] | Activity [20] [%]
1 | CC(C)(c1ccc(OCC2CCN(C3CN(C(=O)CCNc4ccc5c(c4)C(=O)N(C4CCC(=O)NC4=O)C5=O)C3)CC2)cc1)c1ccc(OC[C@H](O)CCl)cc1 (stereo not given in full) | 5 | 20 | 14.4 | 11.9 | 15.5 | < 5 | 32.7 | < 5 | < 5 | 19.8 |  |  |  |  |  |  |  |  |  | 
2 | CC(C)(c1ccc(OCC2CCOCC2)cc1)c1cc(Cl)c(OCC2CCN(C(=O)CCCCCNc3ccc4c(c3)C(=O)N(C3CCC(=O)NC3=O)C4=O)CC2)c(C#N)c1 (stereo not given) |  |  |  |  |  |  |  |  |  |  | 93.6 | 48 | < 5 | 68.5 | 63 | < 5 | 83.9 | 96.1 | 79.3 | < 5
3 | CC(C)(c1ccc(OCC2CCN(C(=O)CCCC#Cc3ccc4c(c3)C(=O)N(C3CCC(=O)NC3=O)C4=O)CC2)cc1)c1ccc(OC[C@H](O)CCl)cc1 (stereo not given in full) | 48.2 | 7.4 | 28.5 | 5.2 | 34 | < 5 | 8.4 | 18.1 | 24.6 | < 5 |  |  |  |  |  |  |  |  |  | 
4 | CC(C)(c1ccc(OCC2CCN(C(=O)CCCCC#Cc3ccc4c(c3)C(=O)N(C3CCC(=O)NC3=O)C4=O)CC2)cc1)c1ccc(OC[C@H](O)CCl)cc1 (stereo not given in full) | 34.8 | < 5 | 25.5 | 26.4 | 30.7 | < 5 | < 5 | 14.6 | 13.7 | 18.6 |  |  |  |  |  |  |  |  |  | 
5 | COc1ccc(C(C)(C)c2ccc(OCC3CCN(C(=O)CCCCCNc4ccc5c(c4)C(=O)N(C4CCC(=O)NC4=O)C5=O)CC3)cc2)cc1 (stereo not given) |  |  |  |  |  |  |  |  |  |  | 88.3 | 38.5 | 20.7 | 6.7 | 83.9 | 54.5 | 57.4 | 94 | 79.5 | 23.3
6 | CC(C)(c1ccc(OCC2CCN(C(=O)CCCCCCNc3ccc4c(c3)C(=O)N(C3CCC(=O)NC3=O)C4=O)CC2)cc1)c1ccc(OC[C@H](O)CCl)cc1 (stereo not given in full) | 8.6 | < 5 | 81 | < 5 | 79.8 | 33.1 | < 5 | 30.7 | 14.4 | 14.2 |  |  |  |  |  |  |  |  |  | 
7 | CC(C)(c1ccc(OCC2CCN(C(=O)CCCCNc3ccc4c(c3)C(=O)N(C3CCC(=O)NC3=O)C4=O)CC2)cc1)c1ccc(OC[C@H](O)CCl)cc1 (stereo not given in full) | 11.8 | 5.9 | 86 | 8.2 | 89.3 | 21.6 | 8.5 | 9.3 | 8.6 | 13.7 |  |  |  |  |  |  |  |  |  | 
8 | CC(C)(c1ccc(OCC2CCN(C3CN(C(=O)CCCCNc4ccc5c(c4)C(=O)N(C4CCC(=O)NC4=O)C5=O)C3)CC2)cc1)c1ccc(OC[C@H](O)CCl)cc1 (stereo not given in full) | 5 | 14.9 | 33.8 | 6.4 | 41.2 | < 5 | 17.7 | < 5 | 13.5 | 40.9 |  |  |  |  |  |  |  |  |  | 
9 | CC(C)(c1ccc(OCC2CCN(C(=O)CCCCNc3cccc4c3C(=O)N(C3CCC(=O)NC3=O)C4=O)CC2)cc1)c1ccc(OC[C@H](O)CCl)cc1 (stereo not given in full) | 20.1 | < 5 | 39.6 | < 5 | 47.1 | 22.3 | < 5 | 27.1 | 12.4 | < 5 |  |  |  |  |  |  |  |  |  | 
10 | CC(C)(c1ccc(OCC2CCN(C(=O)CCCCOc3ccc4c(c3)C(=O)N(C3CCC(=O)NC3=O)C4=O)CC2)cc1)c1ccc(OC[C@H](O)CCl)cc1 (stereo not given in full) | 33.3 | < 5 | 29.6 | < 5 | 44.4 | 32.3 | < 5 | 56 | < 5 | < 5 |  |  |  |  |  |  |  |  |  | 
11 | CC(C)(c1ccc(OCC2CCN(C3CN(C(=O)CNc4ccc5c(c4)C(=O)N(C4CCC(=O)NC4=O)C5=O)C3)CC2)cc1)c1ccc(OC[C@H](O)CCl)cc1 (stereo not given in full) | < 5 | < 5 | 37 | < 5 | 60.9 | < 5 | < 5 | < 5 | < 5 | < 5 |  |  |  |  |  |  |  |  |  | 
12 | CC(C)(c1ccc(OCC2CCN(C(=O)CCCCCCCNc3cccc4c3C(=O)N(C3CCC(=O)NC3=O)C4=O)CC2)cc1)c1ccc(OC[C@H](O)CCl)cc1 (stereo not given in full) | 12.5 | 8.4 | 32.3 | 14.3 | 45.8 | 25 | < 5 | 52.3 | 7.8 | < 5 |  |  |  |  |  |  |  |  |  | 
13 | CC(C)(c1ccc(OCC2CCN(C(=O)CCCCCCCNc3ccc4c(c3)C(=O)N(C3CCC(=O)NC3=O)C4=O)CC2)cc1)c1ccc(OC[C@H](O)CCl)cc1 (stereo not given in full) | < 5 | < 5 | 37.2 | 7 | 42 | 7.5 | 4.9 | < 5 | < 5 | 10.2 |  |  |  |  |  |  |  |  |  | 
14 | CC(C)(c1ccc(OCC2CCN(C3CN(C(=O)CCCNc4ccc5c(c4)C(=O)N(C4CCC(=O)NC4=O)C5=O)C3)CC2)cc1)c1ccc(OC[C@H](O)CCl)cc1 (stereo not given in full) | 5 | < 5 | 57.5 | 24.2 | 76.7 | 10.2 | 6.8 | < 5 | 12.1 | 25.4 |  |  |  |  |  |  |  |  |  | 
15 | CC(C)(c1ccc(OCC2CCN(C(=O)CCCCCCNc3cccc4c3C(=O)N(C3CCC(=O)NC3=O)C4=O)CC2)cc1)c1ccc(OC[C@H](O)CCl)cc1 (stereo not given in full) | < 5 | < 5 | 36.5 | 9.2 | 39.8 | 38 | < 5 | 11 | 10.1 | < 5 |  |  |  |  |  |  |  |  |  | 
16 | CC(C)(c1ccc(OCC2CCN(C(=O)CCCCCNc3cccc4c3C(=O)N(C3CCC(=O)NC3=O)C4=O)CC2)cc1)c1ccc(OC[C@H](O)CCl)cc1 (stereo not given in full) | 28.4 | 21.6 | 65.1 | 36.1 | 68.9 | 19.7 | < 5 | 25.5 | 11.7 | 11.7 |  |  |  |  |  |  |  |  |  | 
17 | CC(C)(c1ccc(OCC2CCN(C(=O)CCCCCOc3ccc4c(c3)C(=O)N(C3CCC(=O)NC3=O)C4=O)CC2)cc1)c1ccc(OC[C@H](O)CCl)cc1 (stereo not given in full) | 29.9 | < 5 | 86.1 | 34 | 95.5 | 43.6 | 5.9 | 67.4 | 5.8 | 20 |  |  |  |  |  |  |  |  |  | 
18 | CC(C)(c1ccc(OCC2CCN(C(=O)CCCCCCOc3ccc4c(c3)C(=O)N(C3CCC(=O)NC3=O)C4=O)CC2)cc1)c1ccc(OC[C@H](O)CCl)cc1 (stereo not given in full) | 34.4 | < 5 | 77.9 | < 5 | 92.7 | 16.4 | < 5 | 33.9 | 20.1 | 8 |  |  |  |  |  |  |  |  |  | 
